From ChEMBL document CHEMBL1145547, “Achiral, selective CCK2 receptor antagonists based on a 1,3,5-benzotriazepine-2,4-dione template” (Bioorg Med Chem, 2008)
Activity calls are given as the source filed them. The calls are words filed in the database; no cut-off is given here.

Experiments:
[1] = biological target: T1, Gastrin/cholecystokinin type B receptor (Mus musculus, UniProt P56481); test: Binding affinity to mouse CCK2 receptor
T1 sequence (P56481 whole entry): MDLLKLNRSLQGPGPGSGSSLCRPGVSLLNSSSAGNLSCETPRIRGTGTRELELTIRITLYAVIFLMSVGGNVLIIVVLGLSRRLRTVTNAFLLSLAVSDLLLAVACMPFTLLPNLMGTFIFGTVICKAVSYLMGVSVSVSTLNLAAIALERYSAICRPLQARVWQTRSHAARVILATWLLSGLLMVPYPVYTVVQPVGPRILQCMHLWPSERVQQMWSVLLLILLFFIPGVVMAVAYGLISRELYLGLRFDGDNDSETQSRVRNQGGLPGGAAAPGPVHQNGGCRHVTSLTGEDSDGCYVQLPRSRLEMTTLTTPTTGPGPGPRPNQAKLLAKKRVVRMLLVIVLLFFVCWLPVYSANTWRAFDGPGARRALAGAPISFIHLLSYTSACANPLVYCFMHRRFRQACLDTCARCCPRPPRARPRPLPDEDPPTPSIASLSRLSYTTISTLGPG

[2] = biological target: T2, Cholecystokinin receptor type A (Mus musculus, UniProt O08786); test: Binding affinity to mouse CCK1 receptor
T2 sequence (O08786 whole entry): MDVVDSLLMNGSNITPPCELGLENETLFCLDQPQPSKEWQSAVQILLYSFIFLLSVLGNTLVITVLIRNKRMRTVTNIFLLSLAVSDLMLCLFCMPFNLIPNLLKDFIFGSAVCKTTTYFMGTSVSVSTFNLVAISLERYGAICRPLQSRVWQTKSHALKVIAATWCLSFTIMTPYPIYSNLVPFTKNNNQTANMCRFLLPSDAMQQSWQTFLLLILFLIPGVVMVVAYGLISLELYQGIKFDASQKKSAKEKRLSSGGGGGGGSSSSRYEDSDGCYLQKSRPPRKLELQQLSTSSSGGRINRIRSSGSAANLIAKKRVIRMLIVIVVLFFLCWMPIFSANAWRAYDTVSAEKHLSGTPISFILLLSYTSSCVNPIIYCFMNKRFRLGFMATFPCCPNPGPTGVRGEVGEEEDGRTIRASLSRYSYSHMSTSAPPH

[3] = biological target: T3, Cholecystokinin receptor type A (Homo sapiens, UniProt P32238); test: Displacement of [3H]L-364718 from human recombinant CCK1 receptor expressed in CHO-K1 cells; assay type: cell-based
T3 sequence (P32238 whole entry): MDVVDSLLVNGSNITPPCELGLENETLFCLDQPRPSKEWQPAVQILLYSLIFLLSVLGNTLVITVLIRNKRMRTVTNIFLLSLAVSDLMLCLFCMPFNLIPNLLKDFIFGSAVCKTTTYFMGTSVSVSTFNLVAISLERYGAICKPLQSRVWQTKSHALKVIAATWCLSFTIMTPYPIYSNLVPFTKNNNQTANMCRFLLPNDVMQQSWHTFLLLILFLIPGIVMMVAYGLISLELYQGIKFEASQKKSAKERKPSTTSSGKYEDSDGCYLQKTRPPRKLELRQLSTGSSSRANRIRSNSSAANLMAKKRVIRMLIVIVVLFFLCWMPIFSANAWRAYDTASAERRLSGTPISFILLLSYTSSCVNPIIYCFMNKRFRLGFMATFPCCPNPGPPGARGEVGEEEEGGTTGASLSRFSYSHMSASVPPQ

[4] = biological target: T4, Gastrin/cholecystokinin type B receptor (Homo sapiens, UniProt P32239); test: Displacement of [125I]BH-CCK-8S from human recombinant CCK2 receptor expressed in NIH3T3 cells; assay type: cell-based
T4 sequence (P32239 whole entry): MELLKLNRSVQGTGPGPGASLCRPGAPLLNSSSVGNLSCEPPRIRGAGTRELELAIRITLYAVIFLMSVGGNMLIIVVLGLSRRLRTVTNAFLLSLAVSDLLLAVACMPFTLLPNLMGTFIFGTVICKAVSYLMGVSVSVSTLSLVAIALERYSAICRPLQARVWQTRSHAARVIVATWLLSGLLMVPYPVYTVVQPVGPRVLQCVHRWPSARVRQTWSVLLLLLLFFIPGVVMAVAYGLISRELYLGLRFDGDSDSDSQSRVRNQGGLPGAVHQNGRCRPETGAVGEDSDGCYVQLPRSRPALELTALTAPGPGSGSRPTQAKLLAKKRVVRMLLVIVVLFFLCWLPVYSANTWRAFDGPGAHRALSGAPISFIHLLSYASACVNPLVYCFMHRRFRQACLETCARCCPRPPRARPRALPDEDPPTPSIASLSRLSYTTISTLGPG

[5] = biological target: T5, Cholecystokinin receptor type A (Cavia porcellus) (UniProt Q63931); test: Agonist activity at CCK1 receptor assessed as stimulation of contraction in guinea pig gallbladder at 30 uM relative to CCK8; assay type: functional
T5 sequence (whole entry): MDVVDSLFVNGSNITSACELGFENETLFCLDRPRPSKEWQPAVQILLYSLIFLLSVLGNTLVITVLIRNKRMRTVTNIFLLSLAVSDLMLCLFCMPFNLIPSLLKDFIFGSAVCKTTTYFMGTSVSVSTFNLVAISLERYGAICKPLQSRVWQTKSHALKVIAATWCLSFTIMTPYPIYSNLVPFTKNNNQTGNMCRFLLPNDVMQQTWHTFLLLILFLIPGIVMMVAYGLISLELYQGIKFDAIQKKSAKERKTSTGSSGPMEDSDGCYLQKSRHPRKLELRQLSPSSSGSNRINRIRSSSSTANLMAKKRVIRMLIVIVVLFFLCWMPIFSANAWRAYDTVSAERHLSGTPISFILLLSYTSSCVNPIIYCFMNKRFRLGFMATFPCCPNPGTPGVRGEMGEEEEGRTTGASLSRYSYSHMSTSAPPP

[6] = biological target: T6, Cholecystokinin receptor type A (Cavia porcellus, UniProt Q63931); test: (§1) Agonist activity at CCK1 receptor assessed as stimulation of contraction in guinea pig gallbladder; assay type: functional
T6 sequence (Q63931 whole entry): T5 sequence (whole entry)

[7] = biological target: T3, Cholecystokinin receptor type A; test: Binding affinity to human CCK1 receptor
[8] = biological target: T4, Gastrin/cholecystokinin type B receptor; test: Binding affinity at human CCK2 receptor
[9] = biological target: T7, Gastrin/cholecystokinin type B receptor (Rattus norvegicus) (UniProt P30553); test: Antagonist activity at CCK2 receptor in immature rat stomach assessed as pentagastrin-induced acid secretion at 1 uM; assay type: functional, tissue-based
T7 sequence (whole entry): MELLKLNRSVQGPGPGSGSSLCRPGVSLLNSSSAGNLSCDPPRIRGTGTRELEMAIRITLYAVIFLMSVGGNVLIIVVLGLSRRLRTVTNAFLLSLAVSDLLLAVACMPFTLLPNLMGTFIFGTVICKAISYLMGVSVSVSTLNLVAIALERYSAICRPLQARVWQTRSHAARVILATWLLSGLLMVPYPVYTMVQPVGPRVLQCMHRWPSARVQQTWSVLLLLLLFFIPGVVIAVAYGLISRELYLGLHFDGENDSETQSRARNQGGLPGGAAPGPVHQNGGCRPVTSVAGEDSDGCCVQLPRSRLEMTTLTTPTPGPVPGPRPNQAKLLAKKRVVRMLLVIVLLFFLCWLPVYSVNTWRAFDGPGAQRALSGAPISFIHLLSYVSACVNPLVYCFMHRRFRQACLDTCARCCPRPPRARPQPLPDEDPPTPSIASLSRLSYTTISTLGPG

[10] = biological target: T5, Cholecystokinin receptor type A (Cavia porcellus); test: as §1; assay type: functional

| SMILES | Ki [3] [nM] | Ki [4] [nM] | further results |
| --- | --- | --- | --- |
| Cc1cccc(NC(=O)NC2C(=O)N(CC(=O)N3CCCC3)c3ccccc3N(CC(=O)N3CCCC3)C2=O)c1 |  |  | IC50 [1]: 50.1 nM; IC50 [2]: 794 nM |
| CC(C)(C)C(=O)CN1C(=O)N(CC(=O)Nc2cccc(SCC(=O)O)c2)C(=O)N(C2CCCCCC2)c2ccccc21 | 282 | 0.891 |  |
| CC(C)(C)C(=O)CN1C(=O)N(CC(=O)Nc2cccc(-c3nc(=O)o[nH]3)c2)C(=O)N(C2CCCCC2)c2ccccc21 | 316 | 1.2 |  |
| CC(C)(C)C(=O)CN1C(=O)N(CC(=O)Nc2cccc(CCC(=O)O)c2)C(=O)N(C2CCCCC2)c2ccccc21 | 2340 | 6.31 |  |
| O=C(CN1C(=O)N(CC(=O)N2CCCC2)c2ccccc2N(c2ccccc2)C1=O)Nc1ccccc1 | > 10000 | 1000 |  |
| CC(C)N(C(=O)CN1C(=O)C(NC(=O)Nc2ccccc2)C(=O)N(c2ccccc2)c2ccccc21)c1ccccc1 (centres undefined) |  |  | Activity [5]: 86% |
| CC(C)(C)C(=O)CN1C(=O)N(CC(=O)Nc2cccc(-c3nc(=O)o[nH]3)c2)C(=O)N(C2CCCCCC2)c2ccccc21 | 117 | 0.427 |  |
| CN(c1cccc(NC(=O)CN2C(=O)N(CC(=O)C(C)(C)C)c3ccccc3N(C3CCCCC3)C2=O)c1)c1nn[nH]n1 | 2090 | 4.27 |  |
| CC(C)N(C(=O)CN1C(=O)C(NC(=O)Nc2cccc(C(=O)O)c2)C(=O)N(c2ccccc2)c2ccccc21)c1ccccc1 (centres undefined) |  |  | EC50 [6]: 39.8 nM; Activity [5]: 102%; Ki [7]: 126 nM; Ki [8]: 10 nM |
| CC(C)(C)C(=O)CN1C(=O)N(CC(=O)Nc2cccc(C(=O)O)c2)N=C(C2CCCCC2)c2ccccc21 |  |  | Ki [7]: 10000 nM; Ki [8]: 1 nM |
| CC(C)(C)C(=O)CN1C(=O)N(CCCC(=O)Nc2cccc(-c3nc(=O)o[nH]3)c2)C(=O)N(C2CCCCC2)c2ccccc21 | 72.4 | 20.9 |  |
| Cc1nc(-c2cccc(NC(=O)CN3C(=O)N(CC(=O)C(C)(C)C)c4ccccc4N(C4CCCCC4)C3=O)c2)cs1 | 1550 | 9.55 |  |
| O=C(CN1C(=O)N(CC(=O)N2CCCC2)c2ccccc2N(c2ccccc2)C1=O)Nc1cccc(C(=O)O)c1 | > 10000 | 380 |  |
| Cc1cccc(NC(=O)CN2C(=O)N(CC(=O)N3CCCC3)c3ccccc3N(C3CCCCCC3)C2=O)c1 | 617 | 23.4 | Activity [9]: inactive |
| CNc1cccc(NC(=O)CN2C(=O)N(CC(=O)C(C)(C)C)c3ccccc3N(C3CCCCC3)C2=O)c1 | 2340 | 9.55 |  |
| CC(C)(C)C(=O)CN1C(=O)N(CC(=O)Nc2cccc(CC(=O)O)c2)C(=O)N(C2CCCCCC2)c2ccccc21 | 3890 | 3.16 |  |
| CC(C)N(C(=O)CN1C(=O)C(CC(=O)Nc2ccccc2)C(=O)N(c2ccccc2)c2ccccc21)c1ccccc1 (centres undefined) |  |  | EC50 [6]: 398 nM; Activity [5]: 50%; Ki [7]: 158 nM; Ki [8]: 794 nM |
| Cc1cccc(NC(=O)CN2C(=O)N(CC(=O)C(C)(C)C)c3ccccc3N(C3CCCCCC3)C2=O)c1 | 447 | 7.59 |  |
| CN(C(=O)CN1C(=O)C(NC(=O)Nc2ccccc2)C(=O)N(c2ccccc2)c2ccccc21)c1ccccc1 (centres undefined) |  |  | pKb [10]: 6.3; Activity [5]: inactive |
| CNc1cccc(NC(=O)N[C@@H]2N=C(c3ccccn3)c3ccccc3N(CC(=O)C(C)(C)C)C2=O)c1 [NETAZEPIDE] |  |  | Ki [7]: 31.6 nM; Ki [8]: 0.0794 nM |
